One block for each compound: values may come before it. Calls of active or inactive are those of the source. The calls are words filed in the database; no cut-off is given here.
Experiments:
[1] = species on record: Homo sapiens; test: Chondrogenic activity in human ASC assessed as increase in aggrecan expression at 1 uM incubated for 11 days by sandwich ELISA relative to control; type: functional
[2] = species on record: Homo sapiens; test: Chondrogenic activity in human ASC assessed as increase in aggrecan expression at 10 uM incubated for 11 days by sandwich ELISA relative to control; type: functional
[3] = species on record: Rattus norvegicus; test: Induction of cartilage repair in collagenase2-induced osteoarthritis rat model assessed as recovery of cartilage thickness at 10 uM on day 7 and 21 by safranin O/fast green staining-based optical microscopic analysis; type: functional, organism-based
[4] = species on record: Homo sapiens; test: Induction of differentiation in human ASC after 11 days by alcian blue staining based analysis relative to control; type: functional
[5] = species on record: Homo sapiens; test: Chondrogenic activity in human ASC assessed as increase in aggrecan expression incubated for 11 days by sandwich ELISA relative to control; type: functional
[6] = species on record: Homo sapiens; test: Upregulation of ERK phosphorylation in human ASC at 0.1 to 1 uM by Western blot analysis; conditions: TDE = time-dependent effect
[7] = species on record: Homo sapiens; test: Chondrogenic activity in human ASC assessed as increase in aggrecan expression at 10 uM incubated for 11 days in presence of MEK inhibitor U0126 by sandwich ELISA relative to control; type: functional
[8] = species on record: Rattus norvegicus; test: Induction of cartilage repair in collagenase2-induced osteoarthritis rat model assessed as recovery of cartilage thickness injected with 10 uM compound-treated human ASC on day 7 and 21 by safranin O/fast green staining-based optical microscopic analysis; type: functional, organism-based
[9] = species on record: Rattus norvegicus; test: Induction of cartilage repair in collagenase2-induced osteoarthritis rat model assessed as increase in proteoglycan content injected with 10 uM compound-treated human ASC + on day 7 and 21 by safranin O/fast green staining-based optical microscopic analysis; type: functional, organism-based
[10] = species on record: Rattus norvegicus; test: Upregulation of aggrecan expression in collagenase2-induced osteoarthritis rat model injected with 10 uM compound-treated human ASC on day 7 and 21 by immunohistochemistry; type: functional, organism-based
[11] = species on record: Rattus norvegicus; test: Upregulation of aggrecan expression in collagenase2-induced osteoarthritis rat model injected with 10 uM compound on day 7 and 21 by immunohistochemistry; type: functional, organism-based

SMILES: O=S(=O)(Nc1ccc(O)cc1Cl)c1ccc2ccccc2c1
- Activity [1]: inactive
- Activity [2]: Active

SMILES: CC(C)(C)c1ccc(S(=O)(=O)Nc2ccc(O)cc2F)cc1
- Activity [1]: inactive

SMILES: O=C(O)c1cc(NS(=O)(=O)c2cccc3cccnc23)ccc1O
- fold change (FC) [1]: 2
- fold change (FC) [2]: 2

SMILES: O=S(=O)(Nc1ccc(O)cc1F)c1ccc2ccccc2c1
- Activity [1]: inactive
- Activity [2]: Active

SMILES: CC(C)(C)c1ccc(S(=O)(=O)NCCc2ccc(O)c(O)c2)cc1
- Activity [1]: inactive
- Activity [2]: inactive

SMILES: CC(C)(C)c1ccc(S(=O)(=O)Nc2cccc(O)c2)cc1
- Activity [1]: inactive

SMILES: CC(C)(C)c1ccc(S(=O)(=O)Nc2ccc(O)c(F)c2)cc1
- Activity [1]: inactive

SMILES: O=S(=O)(NCCc1ccc(O)c(O)c1)c1ccc(-c2ccccc2)cc1
- Activity [1]: inactive
- Activity [2]: inactive

SMILES: CC(C)(C)c1ccc(S(=O)(=O)Nc2ccc(O)c(C(=O)O)c2)cc1
- fold change (FC) [1]: 2
- fold change (FC) [2]: 2

SMILES: O=S(=O)(Nc1ccc(O)cc1)c1ccc2ccccc2c1
- Activity [1]: inactive
- Activity [2]: inactive

SMILES: O=S(=O)(NCCc1ccc(O)c(O)c1)c1ccc2ccccc2c1
- Activity [1]: inactive
- Activity [2]: inactive

SMILES: CCN(c1cc(O)ccc1C)S(=O)(=O)c1ccc2ccccc2c1
- Activity [1]: inactive
- Activity [2]: inactive

SMILES: CCN(c1cc(O)ccc1C)S(=O)(=O)c1ccc(C(C)(C)C)cc1
- Activity [1]: inactive
- Activity [2]: inactive

SMILES: O=S(=O)(Nc1cccc2c(O)cccc12)c1ccc(-c2ccccc2)cc1
- fold change (FC) [1]: 2
- fold change (FC) [2]: 2

SMILES: CC(C)(C)c1ccc(S(=O)(=O)NC2CCC(CCO)CC2)cc1 (configuration not stated)
- Activity [1]: inactive
- Activity [2]: inactive

SMILES: O=[N+]([O-])c1cc(NS(=O)(=O)c2ccc3ccccc3c2)ccc1O
- Activity [1]: inactive
- Activity [2]: Active

SMILES: Cc1ccc(S(=O)(=O)Nc2ccc(O)c3ccccc23)cc1
- fold change (FC) [1]: 2
- fold change (FC) [2]: 2

SMILES: O=S(=O)(Nc1ccc(O)cc1Cl)c1ccc(-c2ccccc2)cc1
- Activity [1]: inactive

SMILES: O=S(=O)(Nc1ccc(O)cc1F)c1ccc(-c2ccccc2)cc1
- Activity [1]: inactive

SMILES: O=S(=O)(NC1CCC(CCO)CC1)c1ccc(-c2ccccc2)cc1 (configuration not stated)
- Activity [1]: inactive
- Activity [2]: inactive

SMILES: O=S(=O)(Nc1cccc2ccc(O)cc12)c1cccc2cccnc12
- fold change (FC) [1]: 2
- fold change (FC) [2]: 2

SMILES: CC(C)(C)c1ccc(S(=O)(=O)Nc2ccc(O)cc2Cl)cc1
- Activity [1]: inactive

SMILES: O=S(=O)(NC1CCC(CCO)CC1)c1ccc2ccccc2c1 (configuration not stated)
- Activity [1]: inactive
- Activity [2]: inactive

SMILES: Cc1ccc(S(=O)(=O)Nc2cccc3c(O)cccc23)cc1
- Activity [1]: inactive
- Activity [2]: Active

SMILES: O=S(=O)(Nc1ccc(O)c(F)c1)c1ccc(-c2ccccc2)cc1
- Activity [1]: inactive

SMILES: Cc1ccc(S(=O)(=O)Nc2cccc3ccc(O)cc23)cc1
- Activity [1]: inactive
- Activity [2]: Active

SMILES: O=S(=O)(Nc1ccc(O)c(F)c1)c1ccc2ccccc2c1
- Activity [1]: inactive

- Activity [6]: Tde
SMILES: O=S(=O)(Nc1ccc(O)cc1)c1cccc2cccnc12
- fold change (FC) [1]: 2
- fold change (FC) [2]: 2
- Activity [3]: Active
- fold change (FC) [4]: 3
- Activity [5]: Dose-dependent effect
- Activity [7]: inactive
- Activity [8]: Active
- Activity [9]: Active
- Activity [10]: Active
- Activity [11]: Active
